The record followed here is ChEMBL document CHEMBL5108056, “Discovery of Isoform-Selective Akt3 Degraders Overcoming Osimertinib-Induced Resistance in Non-Small Cell Lung Cancer Cells” (J Med Chem, 2022).

Active and inactive are the calls of the source. The calls are words filed in the database; no cut-off is given here.

Experiment [1] concerns the target T1, RAC-gamma serine/threonine-protein kinase (Homo sapiens, UniProt Q9Y243). In words: Induction of AKT3 degradation in human NCI-H1975 cells assessed as reduction in AKT3 protein level at 1000 nM incubated for 24 hrs under serum free medium by Western blot analysis relative to control. The format is cell-based. (In general: Immunoblotting shows a protein as a band on a membrane.)

The target of experiment [2] is T1, RAC-gamma serine/threonine-protein kinase. In words: Induction of AKT3 degradation in human NCI-H1975 cells assessed as reduction in AKT3 protein level incubated for 24 hrs under serum free medium by Western blot analysis. Type of experiment: cell-based.
For experiment [3], the target named is T2, RAC-beta serine/threonine-protein kinase (Homo sapiens, UniProt P31751). In words: Induction of AKT2 degradation in human NCI-H1975 cells assessed as reduction in AKT2 protein level incubated for 24 hrs under serum free medium by Western blot analysis. Type of experiment: cell-based.
T2 sequence (P31751 whole entry): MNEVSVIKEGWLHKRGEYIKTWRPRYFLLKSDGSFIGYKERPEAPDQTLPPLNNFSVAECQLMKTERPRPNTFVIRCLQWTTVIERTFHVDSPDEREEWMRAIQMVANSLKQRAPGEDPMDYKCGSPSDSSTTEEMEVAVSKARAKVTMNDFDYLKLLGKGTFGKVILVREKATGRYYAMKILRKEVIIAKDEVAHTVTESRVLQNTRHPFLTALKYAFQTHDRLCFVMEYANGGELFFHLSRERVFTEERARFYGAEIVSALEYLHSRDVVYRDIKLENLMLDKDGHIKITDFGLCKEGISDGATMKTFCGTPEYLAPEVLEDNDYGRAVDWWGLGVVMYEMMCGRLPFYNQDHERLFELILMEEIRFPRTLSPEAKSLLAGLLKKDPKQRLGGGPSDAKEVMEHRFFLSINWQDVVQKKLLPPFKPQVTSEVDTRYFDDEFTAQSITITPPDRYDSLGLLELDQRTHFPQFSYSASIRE
Experiment [4] addresses T3, RAC-alpha serine/threonine-protein kinase (Homo sapiens, UniProt P31749). Kind of experiment: Induction of AKT1 degradation in human NCI-H1975 cells assessed as reduction in AKT1 protein level incubated for 24 hrs under serum free medium by Western blot analysis. Type of experiment: cell-based.
The target of experiment [5] is Epidermal growth factor receptor (Homo sapiens, UniProt P00533). In words: Inhibition of EGFR in human NCI-H1975 cells. The format is cell-based.
Sequence of Epidermal growth factor receptor (Homo sapiens, UniProt P00533) (P00533 whole entry): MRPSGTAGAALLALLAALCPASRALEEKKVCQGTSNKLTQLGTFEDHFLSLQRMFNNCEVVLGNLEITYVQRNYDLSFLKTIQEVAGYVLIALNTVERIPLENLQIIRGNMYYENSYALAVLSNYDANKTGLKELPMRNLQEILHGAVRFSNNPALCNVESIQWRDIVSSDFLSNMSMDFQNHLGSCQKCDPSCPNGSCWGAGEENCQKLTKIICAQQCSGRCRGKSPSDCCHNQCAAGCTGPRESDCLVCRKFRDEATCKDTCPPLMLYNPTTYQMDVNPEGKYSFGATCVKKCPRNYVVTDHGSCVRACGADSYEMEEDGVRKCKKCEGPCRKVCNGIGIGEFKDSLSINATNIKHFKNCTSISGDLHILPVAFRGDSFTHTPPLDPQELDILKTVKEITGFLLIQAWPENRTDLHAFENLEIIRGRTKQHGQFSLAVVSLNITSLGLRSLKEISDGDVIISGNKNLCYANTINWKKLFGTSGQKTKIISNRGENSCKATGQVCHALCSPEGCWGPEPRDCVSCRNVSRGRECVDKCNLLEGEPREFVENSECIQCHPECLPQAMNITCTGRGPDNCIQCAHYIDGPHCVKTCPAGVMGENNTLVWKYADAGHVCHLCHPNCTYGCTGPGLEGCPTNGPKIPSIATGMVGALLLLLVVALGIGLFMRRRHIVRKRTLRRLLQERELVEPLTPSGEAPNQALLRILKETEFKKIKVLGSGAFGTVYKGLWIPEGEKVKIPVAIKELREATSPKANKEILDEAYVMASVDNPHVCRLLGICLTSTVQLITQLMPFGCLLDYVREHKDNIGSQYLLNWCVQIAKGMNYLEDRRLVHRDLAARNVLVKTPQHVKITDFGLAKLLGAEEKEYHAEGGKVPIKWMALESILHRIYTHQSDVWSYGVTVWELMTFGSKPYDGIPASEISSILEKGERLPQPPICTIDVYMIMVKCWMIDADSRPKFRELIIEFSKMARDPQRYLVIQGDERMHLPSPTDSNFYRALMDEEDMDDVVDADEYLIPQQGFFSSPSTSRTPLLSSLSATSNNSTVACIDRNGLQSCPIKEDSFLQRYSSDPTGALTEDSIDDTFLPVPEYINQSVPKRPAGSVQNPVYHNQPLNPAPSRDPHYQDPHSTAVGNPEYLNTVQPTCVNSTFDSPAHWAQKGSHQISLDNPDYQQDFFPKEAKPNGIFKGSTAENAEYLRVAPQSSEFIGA
The subject of experiment [6] is NCI-H1975. Kind of experiment: Antiproliferative activity against human osimertinib resistant NCI-H1975 cells assessed as reduction in cell viability measured after 24 hrs by CCK-8 assay. The note with it: NCI-H1975, 24 h. The format is functional, cell-based.
In experiment [7] the target is T3, RAC-alpha serine/threonine-protein kinase. In words: Induction of AKT1 degradation in human NCI-H1975 cells assessed as reduction in AKT1 protein level at 1000 nM incubated for 24 hrs under serum free medium by Western blot analysis relative to control. The format is cell-based.
In experiment [8] the target is T2, RAC-beta serine/threonine-protein kinase. Kind of experiment: Induction of AKT2 degradation in human NCI-H1975 cells assessed as reduction in AKT2 protein level at 1000 nM incubated for 24 hrs under serum free medium by Western blot analysis relative to control. Type of experiment: cell-based.
In experiment [9] the target is Epidermal growth factor receptor (Homo sapiens, UniProt P00533, T790M). In words: Inhibition of EGFR T790M mutant in human NCI-H1975 cells incubated for 24 hrs under serum free medium by Western blot analysis. The format is cell-based.
Sequence of Epidermal growth factor receptor (Homo sapiens, UniProt P00533, T790M) (P00533 25-1210 T790M limits assumed): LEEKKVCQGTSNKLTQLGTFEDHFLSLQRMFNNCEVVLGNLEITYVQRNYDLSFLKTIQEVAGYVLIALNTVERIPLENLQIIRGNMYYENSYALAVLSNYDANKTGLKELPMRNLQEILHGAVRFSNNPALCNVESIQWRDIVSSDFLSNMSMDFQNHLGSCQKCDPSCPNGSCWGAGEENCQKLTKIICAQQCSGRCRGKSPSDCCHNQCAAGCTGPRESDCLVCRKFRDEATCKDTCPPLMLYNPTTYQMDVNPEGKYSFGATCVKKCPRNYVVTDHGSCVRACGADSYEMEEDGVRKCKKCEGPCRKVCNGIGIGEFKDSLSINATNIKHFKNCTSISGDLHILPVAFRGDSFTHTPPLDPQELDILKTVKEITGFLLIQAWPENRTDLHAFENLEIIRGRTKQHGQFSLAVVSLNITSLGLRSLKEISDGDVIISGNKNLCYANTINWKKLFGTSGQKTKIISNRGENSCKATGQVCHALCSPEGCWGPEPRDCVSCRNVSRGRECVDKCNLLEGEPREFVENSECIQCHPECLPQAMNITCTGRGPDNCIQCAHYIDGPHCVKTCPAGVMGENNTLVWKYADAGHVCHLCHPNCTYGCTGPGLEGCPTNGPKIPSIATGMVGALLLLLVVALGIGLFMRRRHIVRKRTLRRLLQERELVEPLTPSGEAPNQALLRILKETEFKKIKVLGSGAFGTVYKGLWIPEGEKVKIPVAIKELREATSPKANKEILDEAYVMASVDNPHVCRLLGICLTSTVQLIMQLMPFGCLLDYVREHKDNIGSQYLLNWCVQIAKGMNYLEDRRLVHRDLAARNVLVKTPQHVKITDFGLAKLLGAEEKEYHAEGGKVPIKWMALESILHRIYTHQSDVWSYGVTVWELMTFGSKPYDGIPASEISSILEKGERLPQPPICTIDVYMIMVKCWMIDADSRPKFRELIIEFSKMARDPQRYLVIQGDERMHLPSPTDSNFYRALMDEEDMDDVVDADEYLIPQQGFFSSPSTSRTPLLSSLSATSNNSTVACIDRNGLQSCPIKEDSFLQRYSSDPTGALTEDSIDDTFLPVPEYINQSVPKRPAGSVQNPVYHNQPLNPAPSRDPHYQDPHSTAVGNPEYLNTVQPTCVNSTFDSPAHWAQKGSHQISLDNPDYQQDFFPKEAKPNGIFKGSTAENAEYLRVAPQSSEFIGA
Experiment [10] addresses T1, RAC-gamma serine/threonine-protein kinase. Kind of experiment: Binding affinity to full length N-terminal His6-sumo tagged AKT3 (unknown origin) expressed Escherichia coli BL21 (DE3) cells incubated for 2 hrs by pull-down/ LC-MS analysis.
The target is the same in experiment [11]. Kind of experiment: Binding affinity to full length N-terminal His6-sumo tagged AKT3 (unknown origin) expressed Escherichia coli BL21 (DE3) cells by pull-down/ Western blot analysis.
For experiment [12], the system named is NCI-H1975. In words: Antiproliferative activity against human NCI-H1975 cells assessed as reduction in cell viability incubated for 72 hrs by CCK-8 assay. The following applies: NCI-H1975, 72 h.
In experiment [13] the test system is NCI-H1975. Kind of experiment: Antiproliferative activity against human NCI-H1975 cells harbouring Akt3 T305A/S472A mutant assessed as reduction in cell viability incubated for 72 hrs by CCK-8 assay. The format is functional, cell-based. The following applies: NCI-H1975, 72 h. For orientation: Tetrazolium assays rely on reduction of a dye to a coloured formazan, in cell work by metabolically active cells.

For experiment [14], the system named is NCI-H1975. In words: Antiproliferative activity against human NCI-H1975 cells harbouring wild type Akt3 assessed as reduction in cell viability incubated for 72 hrs by CCK-8 assay. The note with it: NCI-H1975, 72 h.

T3 sequence (P31749 whole entry): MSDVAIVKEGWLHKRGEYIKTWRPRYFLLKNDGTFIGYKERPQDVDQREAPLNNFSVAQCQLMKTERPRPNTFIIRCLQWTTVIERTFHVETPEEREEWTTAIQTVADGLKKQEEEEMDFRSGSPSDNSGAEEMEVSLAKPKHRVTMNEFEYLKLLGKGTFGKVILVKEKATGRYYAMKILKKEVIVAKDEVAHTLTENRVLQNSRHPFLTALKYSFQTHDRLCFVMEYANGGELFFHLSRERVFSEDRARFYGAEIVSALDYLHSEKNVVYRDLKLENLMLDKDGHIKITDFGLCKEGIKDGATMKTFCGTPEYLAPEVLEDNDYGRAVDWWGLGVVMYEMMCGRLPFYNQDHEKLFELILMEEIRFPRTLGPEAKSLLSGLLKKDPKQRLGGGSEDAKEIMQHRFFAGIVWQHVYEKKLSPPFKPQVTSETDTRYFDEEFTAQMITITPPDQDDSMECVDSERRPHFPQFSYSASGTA
T1 sequence (Q9Y243 whole entry): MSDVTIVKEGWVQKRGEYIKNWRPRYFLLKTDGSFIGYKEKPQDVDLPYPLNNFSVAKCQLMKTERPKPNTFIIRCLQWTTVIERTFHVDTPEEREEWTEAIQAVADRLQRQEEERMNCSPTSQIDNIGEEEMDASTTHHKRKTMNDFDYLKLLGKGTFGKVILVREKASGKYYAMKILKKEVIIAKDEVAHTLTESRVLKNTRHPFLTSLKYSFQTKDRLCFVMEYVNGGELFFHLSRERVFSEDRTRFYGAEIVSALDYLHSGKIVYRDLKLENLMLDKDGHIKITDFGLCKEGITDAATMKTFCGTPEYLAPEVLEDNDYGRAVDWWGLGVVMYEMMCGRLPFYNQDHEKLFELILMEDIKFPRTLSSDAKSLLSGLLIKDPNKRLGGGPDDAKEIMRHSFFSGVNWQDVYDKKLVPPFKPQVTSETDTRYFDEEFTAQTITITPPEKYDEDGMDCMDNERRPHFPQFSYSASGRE

For `COc1cc(N2CCN(CCCCCCCCCCCCNC(=O)CC34CC5CC(CC(C5)C3)C4)CC2)ccc1Nc1ncc2c(C)cc(=O)n(-c3cccc(NC(=O)C(C)C)c3)c2n1`, the Emax in experiment [1] came out at 71%. Besides, the EC50 in experiment [2] is 33 nM; in experiment [3] it was greater than 1000 nM; in experiment [4], greater than 1000 nM; in experiment [5], 143 nM.
Take `CCC(=O)Nc1cccc(-n2c(=O)cc(C)c3cnc(Nc4ccc(N5CCN(CCCCCCCCCCCCNC(=O)CC67CC8CC(CC(C8)C6)C7)CC5)cc4OC)nc32)c1`: the maximal response (Emax) in [1] came out at 74%. For the same compound, the EC50 in experiment [2] is 34 nM; in experiment [3], greater than 1000 nM; in [4], greater than 1000 nM.
For `C=CC(=O)Nc1cccc(-n2c(=O)cc(C)c3cnc(Nc4ccc(N5CCN(C(=O)CCCCCCCCCCCNC(=O)CC67CC8CC(CC(C8)C6)C7)CC5)cc4OC)nc32)c1`, the EC50 in [2], in experiment [3] and in experiment [4] was greater than 1000 nM each time.
In the case of `COc1cc(N2CCN(CCCCCCCCCCCCNC(=O)CC34CC5CC(CC(C5)C3)C4)CC2)ccc1Nc1ncc2c(C)cc(=O)n(-c3cccc(NC(=O)C(C)(C)C)c3)c2n1`, the Emax in [1] came out at 77%. Also, the EC50 in experiment [2] is 57 nM; in [3], greater than 1000 nM; in experiment [4], greater than 1000 nM.
For the compound `COc1cc(N2CCN(CCCCCCCCCCCCNC(=O)CC34CC5CC(CC(C5)C3)C4)CC2)ccc1Nc1ncc2c(C)cc(=O)n(-c3cccc(N)c3)c2n1`, the Emax in [1] stood at 77%. Moreover, the EC50 was 102 nM in experiment [2], greater than 1000 nM in [3] and greater than 1000 nM in experiment [4].
As to `COc1cc(N2CCN(CCCCCCCCCCCCNC(=O)CC34CC5CC(CC(C5)C3)C4)CC2)ccc1Nc1ncc2c(C)cc(=O)n(-c3ccc(NC(=O)C4CC4)cc3)c2n1`, the EC50 in experiment [2], in experiment [3] and in experiment [4] was greater than 1000 nM each time. Moreover, in the experiment with NCI-H1975 [6], the IC50 was greater than 10000 nM.
Regarding `C=CC(=O)Nc1cccc(-n2c(=O)cc(C)c3cnc(Nc4ccc(N5CCN(CCCCCCCCCCNC(=O)CC67CC8CC(CC(C8)C6)C7)CC5)cc4OC)nc32)c1`, the Emax in experiment [1] was found to be 51%. For the same compound, the EC50 in experiment [2] was 402 nM; in experiment [3] it was greater than 1000 nM; in experiment [4] it was greater than 1000 nM.
With `CC(C)NC[C@@H](C(=O)N1CCN(c2ncnc3c2[C@H](C)C[C@H]3O)CC1)c1ccc(Cl)cc1` [IPATASERTIB], in the experiment on NCI-H1975 [6], the IC50 was greater than 20000 nM.
`C=CC(=O)Nc1cccc(-n2c(=O)cc(C)c3cnc(Nc4ccc(N5CCN(CCCCCCCCNC(=O)CC67CC8CC(CC(C8)C6)C7)CC5)cc4OC)nc32)c1`: the Emax in experiment [1] turned out to be 75%; in [7], 55%; in [8], 69%. The values for the EC50 in [2], in experiment [3] and in [4] were 52 nM, 82 nM and 168 nM, respectively.
On to `C=CC(=O)Nc1cccc(-n2c(=O)cc(C)c3cnc(Nc4ccc(N5CCN(CCCCCCCCCCCCNC(=O)CC67CC8CC(CC(C8)C6)C7)CC5)cc4OC)nc32)c1`, for which, in [1], the Emax worked out at 73%. Moreover, the EC50 in experiment [2] is 52 nM; in experiment [9], 20.1 nM; in experiment [3], greater than 1000 nM; in experiment [4], greater than 1000 nM.
For the compound `COc1cc(N2CCN(CCCCCCCCCCCCNC(=O)CC34CC5CC(CC(C5)C3)C4)CC2)ccc1Nc1ncc2c(C)cc(=O)n(-c3cccc(NC(C)=O)c3)c2n1`, in [1], the maximum response (Emax) is 68%. Further, the concentration for a half-maximal effect (EC50) in experiment [2] was 67 nM; in [3], greater than 1000 nM; in experiment [4] it was greater than 1000 nM.
As for `C#CCN(CCCCCCCCCCCCN1CCN(c2ccc(Nc3ncc4c(C)cc(=O)n(-c5cccc(NC(=O)C6CC6)c5)c4n3)c(OC)c2)CC1)C(=O)CC12CC3CC(CC(C3)C1)C2`, the outcome in experiment [10] and in experiment [11] was Active.
For `C=CC(=O)Nc1cccc(-n2c(=O)cc(C)c3cnc(Nc4ccc(N5CCN(CCOCCOCCNC(=O)CC67CC8CC(CC(C8)C6)C7)CC5)cc4OC)nc32)c1`, the maximal effect (Emax) in [1] and in experiment [7] was 55% in each case. Moreover, the figures for the EC50 in experiment [2], in experiment [3] and in [4] were 564 nM, greater than 1000 nM and 300 nM, respectively.
On to `C=CC(=O)Nc1cccc(-n2c(=O)cc(C)c3cnc(Nc4ccc(N5CCN(C)CC5)cc4OC)nc32)c1`, for which the EC50 in [2], in experiment [3] and in [4] was greater than 1000 nM each time.
Consider `C=CC(=O)Nc1cc(Nc2nccc(-c3cn(C)c4ccccc34)n2)c(OC)cc1N(C)CCN(C)C` [OSIMERTINIB], for which the IC50 in the experiment on NCI-H1975 [12] came out at […]; with NCI-H1975 [13], […]; in the experiment on NCI-H1975 [14], […].
For the compound `C=CC(=O)Nc1cccc(-n2c(=O)cc(C)c3cnc(Nc4ccc(N5CCN(CCCCCCCCCCCCCCNC(=O)CC67CC8CC(CC(C8)C6)C7)CC5)cc4OC)nc32)c1`, in experiment [1], the Emax was 75%. For the same compound, the EC50 was 120 nM in experiment [2], greater than 1000 nM in experiment [3] and greater than 1000 nM in experiment [4].
Take `C=CC(=O)Nc1ccc(-n2c(=O)cc(C)c3cnc(Nc4ccc(N5CCN(CCCCCCCCCCCCNC(=O)CC67CC8CC(CC(C8)C6)C7)CC5)cc4OC)nc32)cc1`: the EC50 in experiment [2], in experiment [3] and in experiment [4] was greater than 1000 nM in each case.
With `C=CC(=O)Nc1cccc(-n2c(=O)cc(C)c3cnc(Nc4ccc(N5CCN(CCCCCCNC(=O)CC67CC8CC(CC(C8)C6)C7)CC5)cc4OC)nc32)c1`, the EC50 was 1000 nM in [2], greater than 1000 nM in experiment [3] and greater than 1000 nM in experiment [4].
Regarding `C[C@@H]1CC(O)c2ncnc(N3CCN(C(=O)[C@H](CNCCCCCCCCCCc4cccc5c4C(=O)N(C4CCC(=O)NC4=O)C5=O)c4ccc(Cl)cc4)CC3)c21` (mixture of isomers), the IC50 with NCI-H1975 [6] is 2420 nM.

For orientation: Emax means the maximal effect, on the per cent scale that the assay sets. For orientation: EC50 means the concentration giving half of the maximal effect. Usually IC50 stands for the concentration that gives 50% inhibition.
